# Columns and labels:
# [1] = system: 2N5.1 (Mamu-B*098-transfected LLC-MK2 cells as Ag-presenting cells); assay: Ag presentation by LLC-MK2 cells transfected with rhesus MHC class I (Mamu) cDNA to 2N5.1; format: cell-based, rhesus macaque; conditions: C14nef5 presented by LLC-MK2 expressing Mamu-B*098; in triplicate, mean with s.e.m. (graph)
# Experimental: (§1) Figure 1 Identification of Mamu-B*098 as a lipopeptide Ag-presenting molecule. (a) LLC-MK2 cells transfected with each of the rhesus MHC class I genes were tested for their ability to present C14nef5 to 2N5.1. […] PBMCs obtained from a donor with the potential to present C14nef5 to 2N5.1 were used as a positive control. Experiments were performed in triplicate. Mean values with s.e.m. are shown. (b) The binding of lipopeptide Ags to recombinant β2m-linked Mamu-B*098 and Mamu-A*02 proteins was monitored by biolayer interferometry. Representative data from three independent experiments are shown. Mamu-A*02, a rhesus MHC class I allele known to bind 9-mer peptides, was used as a negative control. (c) Plate-coated MHC class I molecules were tested for their ability to present lipopeptide Ags to 2N5.1. The Ag-specific T-cell response was assessed by measuring the amount of IFN-γ released into the culture medium. Mean values with s.e.m. are shown. […] The original data (coloured as indicated) are depicted with the curve fit (grey) overlaid. The steady-state affinity plot (inset) is also shown. Three independent experiments were performed and mean equilibrium-dissociation constant (KD) values ±s.d. are shown. (e) Amino acid sequences of Mamu-B*098, HLA-B*27:09, Mamu-B*17:01 and human CD1a are shown. […] Solid and open triangles indicate paired and unpaired cysteine residues, respectively. […]
# [2] = system: 2N5.1 (LLC-MK2 cells transfected with other rhesus MHC class I genes); assay: Ag presentation by other (non-B*098) Mamu class I LLC-MK2 transfectants to 2N5.1; format: cell-based, rhesus macaque; conditions: LLC-MK2 transfected with each rhesus MHC class I cDNA clone, other than Mamu-B*098; IFN-γ; C14nef5
# Experimental: as §1
# [3] = system: 2N5.1 (plate-coated Mamu-B*098); assay: T-cell assay with plate-coated Mamu-B*098, IFN-γ release by 2N5.1; format: cell-based, rhesus macaque; conditions: 10 μg MHC protein, 1 μg lipopeptide loaded overnight 37 °C; 5 × 10^4 T cells per well, 24 h; IFN-γ ELISA
# Text: Single-chain MHC proteins in which β2m was linked via a Gly-Ser linker (GGGGSGGSGSGGGSS) to the ectodomain of either Mamu-B*098 or Mamu-A*02, followed by a biotinylation sequence peptide (LHHILDAQKMVWNHR), were also expressed in E. coli and were purified in a similar manner to the trimer complex of Mamu-B*098, β2m and C14nef5. The β2m-linked Mamu-B*098 protein was refolded without C14nef5, whereas the β2m-linked Mamu-A*02 protein was refolded in the presence of the YY9 peptide (YTSGPGIRY). These recombinant proteins (3 mg) were biotinylated by being incubated for 12 h at 20 °C with 2 μg of BirA enzyme (Sigma-Aldrich, St Louis, MO) in a biotinylation buffer containing 100 mM Tris-HCl pH 8.0, 5 mM MgCl2, 4.5 mM ATP and 4 mM D-biotin, and were purified by size-exclusion chromatography.
# Streptavidin-coated 96-well plates (Thermo Scientific, Hudson, NH) were overlaid with 10 μg of the biotinylated β2m-linked Mamu-B*098 and Mamu-A*02 proteins, and lipopeptide Ags (1 μg) were loaded by an overnight incubation at 37 °C. The wells were then washed extensively and T cells (5 × 10^4 per well) were added. After a 24-h incubation at 37 °C, aliquots of the culture supernatants were collected and the amount of IFN-γ released into the medium was measured by a human/monkey IFN-γ enzyme-linked immunosorbent assay kit (Mabtech, Nacka Strand, Sweden).
# [4] = system: 2N5.1; assay: 2N5.1 response to C14nef5 in the presence of rhesus PBMCs and its blocking by mAbs; format: cell-based, rhesus macaque; conditions: rhesus PBMCs derived from a positive donor
# Experimental: The rhesus macaques (Macaca mulatta) used in this study were treated humanely in accordance with institutional regulations, and the experimental protocols were approved by the Committee for Experimental Use of Non-human Primates at the Institute for Virus Research and at the Primate Research Institute, Kyoto University. Rhesus macaque monocytes were isolated from PBMCs using MACS MicroBeads (Miltenyi Biotec, Bergisch Gladbach, Germany) conjugated with cross-reactive anti-human CD14 Abs. After immunizing BALB/c mice with these monocytes, spleen cells were obtained and fused with SP2/0 myeloma cells using the standard polyethylene glycol method. Culture supernatants of the hybridoma clones were tested at a dilution of 1:1 for their reactivity to rhesus macaque monocytes by flow cytometry and positive clones were subjected to T-cell assays to assess blocking activities.
# [5] = system: 2N5.1; conditions: cited from earlier work
# Text: For example, human and simian immunodeficiency viruses (HIV and SIV) borrow host-derived N-myristoyltransferase and its substrate myristoyl-CoA, to couple a 14-carbon saturated fatty acid (myristic acid) to the N-terminal glycine residue of the Nef protein. […] To obtain an insight into its molecular identity, we generated several hundred monoclonal antibodies that recognized rhesus PBMCs and tested their abilities to block the presentation of C14nef5 to 2N5.1. […] The myristoyl group of the lipopeptide adopted a U-shaped configuration and fit perfectly with the extended B pocket. Furthermore, inter- and intramolecular VDW forces established throughout the acyl chain synergistically reinforced its stable binding to the B pocket. These structural f ... || (+ 1 further places)
substance,measurement,setting,value
"C14-Gly-Gly-Ala-Ile-Ser [C14nef5, N-myristoylated 5-mer peptide (C14-Gly-Gly-Ala-Ile-Ser; C14nef5) derived from the SIV Nef protein]",stimulation of 2N5.1 to produce IFN-γ by Mamu-B*098-transfected LLC-MK2 cells,[1],stimulated 2N5.1 cells to produce interferon-γ (IFN-γ)
same,Ag presentation capacity of other Mamu class I transfectants,[2],None of the cell transfectants exhibited the Ag presentation capacity
same,IFN-γ response of 2N5.1 to plate-coated Mamu-B*098 with lipopeptide Ag,[3],sufficient for stimulating 2N5.1 to produce IFN-γ
same,2N5.1 response (IFN-γ production) in the presence of rhesus PBMCs,[4],responded to C14nef5
same,"antigenic activity, C14nef5 versus its Ser to Thr mutant",[5],virtually identical antigenic activities
same,recognition by rhesus macaque CD8+ CTL line 2N5.1,[5],specifically recognizes
same,requirement of PBMCs for recognition by 2N5.1,[5]; irradiated PBMCs,requires the presence of irradiated peripheral blood mononuclear cells (PBMCs)

# From article PMC4735555, “Crystal structure of the N-myristoylated lipopeptide-bound MHC class I complex” (Nature Communications, 2016)
